Measured values from patent US20100119529A1, “ELASTIN-LIKE POLYMER DELIVERY VEHICLES” (priority 2006, published 2010).

Experiments:
[1] = tested on: MCF-7 human breast cancer cells; test: Cytotoxicity test, XTT assay; format: cell-based; set-up: Average (XTT metabolic signal): unit not given here; details: for IC50: 74 hr incubation, XTT
Procedure: MCF-7 human breast cancer cells (ATCC HTB-22) were plated in 96-well plates at an initial density of 5000 cells per well in 90 μL of RMPI 1640 supplemented with 10% fetal bovine serum, 100 IU penicillin, and 100 μg/mL streptomycin, 2 mM L-glutamine, and maintained at 37° C. and 5% CO2 atmosphere. After 24 hr, stock solutions of 17-GAOH in DMSO and GA-(VKG)8ELP1-120 were diluted 10-fold with growth media and added to wells (6 wells) as […] (1% v/v final DMSO concentration). The cells were incubated with the compounds for 74 hr and the metabolic rate was determined using an XTT™ assay kit (Sigma) according to the manufacturer's instructions. The concentrations inhibiting cell growth by 50% (IC50) were determined by fixed Hill slope regression with SIGMA PLOT™ 2004 (Systat Software, Inc.).

mouse mammary tumors = details: 43° C. hyperthermia; cited from earlier work

| SMILES | IC50 ([1]; test 1) [µM] | Average (XTT metabolic signal) ([1]; test 1, final concentration 0.1 nM) | Average (XTT metabolic signal) ([1]; test 1, final concentration 1 nM) | Average (XTT metabolic signal) ([1]; test 1, final concentration 10 nM) | Average (XTT metabolic signal) ([1]; test 1, final concentration 100 nM) | Average (XTT metabolic signal) ([1]; test 1, final concentration 1,000 nM) | Average (XTT metabolic signal) ([1]; test 1, final concentration 10,000 nM) | IC50 ([1]; test 2) [µM] | Average (XTT metabolic signal) ([1]; test 2, final concentration 50 nM) | Average (XTT metabolic signal) ([1]; test 2, final concentration 100 nM) | Average (XTT metabolic signal) ([1]; test 2, final concentration 250 nM) | Average (XTT metabolic signal) ([1]; test 2, final concentration 500 nM) | Average (XTT metabolic signal) ([1]; test 2, final concentration 1,000 nM) | Average (XTT metabolic signal) ([1]; test 2, final concentration 2,000 nM) | increase of thermal enhancement ratio (TER) (mouse mammary tumors) |
| --- | --- | --- | --- | --- | --- | --- | --- | --- | --- | --- | --- | --- | --- | --- | --- |
| CO[C@H]1/C=C\C=C(/C)C(=O)NC2=CC(=O)C(NCCO)=C(C[C@@H](C)C[C@H](OC)[C@H](O)[C@@H](C)/C=C(\C)[C@@H]1OC(N)=O)C2=O [17-HEA-DMGA, 17-β-hydroxyethylamino-17-demethoxygeldanamycin] | 0.855 | 1158 | 1288 | 1274 | 1588 | 344 | 114 | 0.731 | 788.5 | 999.7 | 774.3 | 515.0 | 297.5 | 46.9 |  |
| N.N.[Cl][Pt][Cl] [Cisplatin] |  |  |  |  |  |  |  |  |  |  |  |  |  |  | 1.4-5.0 fold |
